For test [1], the system named is HL-60. In words: Cytotoxicity against human HL60 cells by MTT assay. The class given is functional, cell-based.
Test [2] has as its system MDA-MB-231. Kind of test: Cytotoxicity against human MDA-MB-231 cells by MTT assay. It counts as functional, cell-based.
Test [3] concerns the target DNA topoisomerase 2-alpha (Homo sapiens) (UniProt P11388). Kind of test: Inhibition of human topoisomerase 2 at 20 uM.
Test [4] relates to DU-145. Kind of test: Cytotoxicity against human DU145 cells by MTT assay. It counts as functional, cell-based.
Test [5] relates to HeLa. Kind of test: Cytotoxicity against human HeLa cells by MTT assay. It counts as functional, cell-based.
Test [6] concerns HT-29. Kind of test: Cytotoxicity against human HT-29 cells by MTT assay. The class given is functional, cell-based.
In test [7] the target is T1, DNA topoisomerase 1 (Homo sapiens) (UniProt P11387).
T1 sequence (whole entry): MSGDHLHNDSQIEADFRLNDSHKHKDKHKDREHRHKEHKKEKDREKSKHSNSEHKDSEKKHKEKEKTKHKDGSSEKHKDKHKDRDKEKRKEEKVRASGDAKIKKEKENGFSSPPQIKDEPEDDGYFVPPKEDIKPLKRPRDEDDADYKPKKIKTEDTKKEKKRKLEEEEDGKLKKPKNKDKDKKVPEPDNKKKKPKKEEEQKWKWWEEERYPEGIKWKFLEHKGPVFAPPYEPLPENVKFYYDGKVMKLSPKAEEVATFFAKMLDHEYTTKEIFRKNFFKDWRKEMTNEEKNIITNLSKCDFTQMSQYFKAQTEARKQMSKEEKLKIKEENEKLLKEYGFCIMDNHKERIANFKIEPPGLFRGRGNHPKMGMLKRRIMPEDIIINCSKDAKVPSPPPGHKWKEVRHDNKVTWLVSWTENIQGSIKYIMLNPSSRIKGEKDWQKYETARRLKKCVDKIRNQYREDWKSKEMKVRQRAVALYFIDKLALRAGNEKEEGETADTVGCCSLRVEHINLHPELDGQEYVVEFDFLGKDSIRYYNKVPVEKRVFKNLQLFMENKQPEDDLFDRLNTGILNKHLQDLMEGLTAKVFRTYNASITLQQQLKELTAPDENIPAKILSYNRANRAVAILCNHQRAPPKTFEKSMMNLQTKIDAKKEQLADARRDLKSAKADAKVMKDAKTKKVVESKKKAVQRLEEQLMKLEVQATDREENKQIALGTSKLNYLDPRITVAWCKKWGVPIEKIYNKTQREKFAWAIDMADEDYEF
Kind of test: Inhibition of human topoisomerase 1 at 20 uM.

Test [8] concerns the target T1, DNA topoisomerase 1 (Homo sapiens). Kind of test: Inhibition of human topoisomerase 1 at 100 uM.
Test [9] addresses DNA topoisomerase 2-alpha (Homo sapiens) (UniProt P11388). Kind of test: Inhibition of human topoisomerase 2 at 100 uM.

Counter-ions that a name gives are not always drawn. A value given as a limit tells only on which side of the number the result lay.

DNA topoisomerase 2-alpha (Homo sapiens), sequence (P11388 whole entry): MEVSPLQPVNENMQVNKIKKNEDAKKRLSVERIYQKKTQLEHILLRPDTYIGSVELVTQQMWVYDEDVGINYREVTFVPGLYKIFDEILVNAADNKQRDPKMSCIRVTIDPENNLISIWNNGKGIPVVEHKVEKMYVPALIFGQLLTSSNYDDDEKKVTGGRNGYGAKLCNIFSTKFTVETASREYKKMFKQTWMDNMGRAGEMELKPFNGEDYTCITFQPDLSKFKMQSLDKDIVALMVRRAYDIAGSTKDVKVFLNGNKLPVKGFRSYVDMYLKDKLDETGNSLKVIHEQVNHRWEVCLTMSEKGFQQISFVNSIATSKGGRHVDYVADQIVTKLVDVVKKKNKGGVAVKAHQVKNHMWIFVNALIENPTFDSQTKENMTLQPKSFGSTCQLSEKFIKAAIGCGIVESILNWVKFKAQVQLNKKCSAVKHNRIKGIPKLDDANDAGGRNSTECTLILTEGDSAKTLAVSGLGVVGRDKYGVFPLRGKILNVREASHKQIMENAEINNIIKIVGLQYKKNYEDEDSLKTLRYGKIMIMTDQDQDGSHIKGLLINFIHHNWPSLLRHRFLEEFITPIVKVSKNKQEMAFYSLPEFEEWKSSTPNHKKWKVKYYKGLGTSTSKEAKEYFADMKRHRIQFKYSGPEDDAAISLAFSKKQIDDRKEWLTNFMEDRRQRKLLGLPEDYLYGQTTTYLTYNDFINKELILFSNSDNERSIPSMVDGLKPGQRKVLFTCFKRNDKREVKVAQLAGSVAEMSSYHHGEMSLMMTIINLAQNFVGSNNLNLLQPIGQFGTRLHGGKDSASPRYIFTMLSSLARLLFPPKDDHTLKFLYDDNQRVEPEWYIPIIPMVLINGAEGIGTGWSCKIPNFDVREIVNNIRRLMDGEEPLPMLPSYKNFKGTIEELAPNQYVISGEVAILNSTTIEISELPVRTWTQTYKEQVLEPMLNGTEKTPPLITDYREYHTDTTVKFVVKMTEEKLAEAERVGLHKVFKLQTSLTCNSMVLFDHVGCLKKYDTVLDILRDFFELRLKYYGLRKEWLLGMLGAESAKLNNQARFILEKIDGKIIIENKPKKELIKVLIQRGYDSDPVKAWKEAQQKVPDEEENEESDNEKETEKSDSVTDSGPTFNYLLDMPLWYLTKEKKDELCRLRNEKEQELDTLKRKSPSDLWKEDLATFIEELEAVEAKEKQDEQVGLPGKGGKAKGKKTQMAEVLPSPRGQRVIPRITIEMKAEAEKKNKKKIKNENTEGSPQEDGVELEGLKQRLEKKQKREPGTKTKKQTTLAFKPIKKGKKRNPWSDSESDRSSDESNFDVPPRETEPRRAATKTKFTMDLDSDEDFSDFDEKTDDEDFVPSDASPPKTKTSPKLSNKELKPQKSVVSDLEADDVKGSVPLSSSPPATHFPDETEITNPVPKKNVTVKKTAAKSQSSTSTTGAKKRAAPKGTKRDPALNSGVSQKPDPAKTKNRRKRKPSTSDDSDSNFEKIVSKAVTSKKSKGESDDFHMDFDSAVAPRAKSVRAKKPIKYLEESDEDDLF

As for `COc1cc([C@@H]2c3cc4c(cc3[C@@H](O[C@@H]3O[C@@H]5CO[C@@H](C)O[C@H]5[C@H](O)[C@H]3O)[C@H]3COC(=O)[C@H]23)OCO4)cc(OC)c1O` [ETOPOSIDE], the IC50 is 0.93 µM in test [1]; 3.5 µM in [2]; 5.16 µM in test [4]; 2.15 µM in test [5]; 6.32 µM in [6]. This compound returned an inhibition in [3] of 13.4%.

In the case of `O=c1c2cccnc2oc2cc(OCC3CS3)cc(OCC3CS3)c12` (centres undefined), the IC50 was 10.5 µM in test [1]; 13 µM in [2]; 21 µM in test [4]; 9.96 µM in test [5]; over 50 µM in test [6]. In addition, the inhibition in test [3] amounted to 8.6%; in test [7] it was 5.2%; in test [8], 0%; in [9], 6.7%.

For the compound `O=c1c2cccnc2oc2cc(OCC3CS3)cc(O)c12` (centres undefined), the IC50 in test [1] is 20.1 µM; in test [2] it was 18.2 µM; in test [4] it was 15.8 µM; in test [5], 6.9 µM; in test [6] it was over 50 µM. Further, the inhibition is 9.2% in test [3], 26.7% in test [7], 50.3% in test [8] and 19.5% in [9].

`CC[C@@]1(O)C(=O)OCc2c1cc1n(c2=O)Cc2cc3ccccc3nc2-1` [CAMPTOTHECIN]: the half-maximal inhibitory concentration (IC50) is 0.067 µM in test [1]; 0.68 µM in test [2]; 1 µM in test [4]; 0.58 µM in test [5]; 1.07 µM in test [6].

For the compound `O=c1c2ccccc2[nH]c2cc(OCC3CS3)cc(O)c12` (centres undefined), the IC50 in test [1] is 23 µM; in test [2] it was 21.4 µM; in test [4], 23 µM; in test [5], over 50 µM; in test [6], 33 µM. In addition, the inhibition in test [3] amounted to 8.1%; in test [7], 0%; in test [8], 2.3%; in test [9] it was 8.7%.

Turning to `COc1cccc2c1C(=O)c1c(O)c3c(c(O)c1C2=O)C[C@@](O)(C(=O)CO)C[C@@H]3O[C@H]1C[C@H](N)[C@H](O)[C@H](C)O1` [DOXORUBICIN HYDROCHLORIDE], the IC50 was found to be 0.88 µM in [1]; 1.67 µM in [2]; 2.54 µM in test [4]; 1.08 µM in test [5]; 3.9 µM in test [6].

Take `O=c1c2ccccc2[nH]c2cc(OCC3CO3)cc(O)c12` (centres undefined): the IC50 is 12.5 µM in test [1]; 18.6 µM in [2]; over 50 µM in test [4]; over 50 µM in test [5]; over 50 µM in test [6]. The inhibition in test [3] stood at 12.9%; in [7], 10.8%; in [8], 9.1%; in [9], 18.1%.

For `O=c1c2cccnc2oc2cc(OCC3CO3)cc(O)c12` (centres undefined), the IC50 turned out to be 24.8 µM in test [1]; 24.3 µM in test [2]; 8.11 µM in test [4]; 22.1 µM in test [5]; 26.3 µM in test [6]. The inhibition in test [3] came out at 8.3%; in test [7] it was 1.8%; in [8], 0%; in [9], 30.3%.

Consider `O=c1c2ccccc2[nH]c2cc(OCC3CS3)cc(OCC3CS3)c12` (centres undefined), for which the IC50 in [1] is 7.73 µM; in test [2], 8.02 µM; in [4], 23.2 µM; in test [5] it was 11.1 µM; in test [6] it was 23.2 µM. Further, the inhibition came out at 8.5% in [3], 0% in test [7], 0% in test [8] and 6.9% in test [9].

Regarding `O=c1c2ccccc2[nH]c2cc(OCC3CO3)cc(OCC3CO3)c12` (centres undefined), the concentration for half-maximal inhibition (IC50) is 22 µM in [1]; 28.9 µM in test [2]; 30.9 µM in [4]; over 50 µM in [5]; 29.3 µM in test [6]. Besides, the inhibition is 8.7% in [3], 2.5% in [7], 0% in test [8] and 13.2% in [9].

Values taken from ChEMBL document CHEMBL1154361, “Oxiranylmethyloxy or thiiranylmethyloxy-azaxanthones and -acridone analogues as potential topoisomerase I inhibitors” (Bioorg Med Chem Lett, 2009).
